For orientation: solubility means the concentration that dissolves in the medium under given conditions. Low values mean little dissolved substance, high ones much dissolved substance. The term IC50 denotes the concentration that gives 50% inhibition. A word on the melting point: it is the temperature of the solid-liquid transition.

Structures are written as SMILES. Values after ≈ are worked out from the molar mass of the structure shown.

Data set [1] in a line: Aqueous solubility, shake-flask method, phosphate buffer pH 7.4. It is filed as physicochemical. Conditions: thermodynamic from solid, phosphate buffer pH 7.4, shake-flask, mean ± SD of three experiments. As for the experimental part:
The aqueous solubility of tetrazole derivatives was determined by the shaking flask methodology in phosphate buffer at pH 7.4, microfiltration, and quantification of the saturated solutions via UV spectroscopy. […] The introduction of polar groups on the 3-indole position was favorable since the most soluble compounds were the oximes 16–19 (38–53 µg/mL), followed by the carbaldehyde series 12–15 (33–45 µg/mL), and the carbonitrile derivatives (25–40 µg/mL), whereas the unsubstituted indoles 8–11 were the least soluble series (19–35 µg/mL).
The aqueous solubility of the compounds was determined using the saturation shake-flask method. First, calibration lines at the maximum wavelength of absorbance were determined for each compound. Then, 5 mg of each compound was suspended in 500 µL of pH 7.4 buffer, and the resulting mixture was shaken for 72 h at room temperature and filtrated over a […] filter to remove the insoluble fraction. The concentration of the compound in the supernatant (saturated solution) was determined by measuring UV absorbance at the maximum wavelength of absorbance and interpolation in the calibration line. A Helios Alfa Spectrophotometer was used for the UV measurements. The aqueous solubility values are given as the average of three independent experiments.

Data set [2] has as its system HeLa (cervix epithelioid carcinoma). In words: Cell growth inhibition, MTT assay, HeLa. Conditions: Homo sapiens. The format is cell-based. As for the experimental part: (§1) The ability of the synthesized compounds to inhibit the cell proliferation of human cancer cell lines was assayed by measuring cell viability through the use of the MTT method 72 h after treatment. For this purpose, representative cell lines of the most frequent kinds of cancer were selected, including the following: HeLa (cervix epithelioid carcinoma), MCF7 (breast adenocarcinoma), U87 MG (glioblastoma), T98G (temozolomide resistant glioblastoma), HepG2 (hepatocellular carcinoma), HCT8 (colorectal carcinoma), and HT-29 (colon adenocarcinoma).
(§2) The cell lines were obtained from ATTC (Manassas, VA, USA). […] The cells were periodically tested for Mycoplasma infection by using a MycoAlert kit (Lonza, Norwest, Australia), and only Mycoplasma-free cells were used in the experiments.
(§3) Then, every compound was added (10 µL/well) to a final concentration of 10 µM. Untreated cells were used as negative controls. The antiproliferative activity of compounds was measured 72 h after drug exposure through the MTT assay. […] For this purpose, compounds were used at different concentrations, ranging from 10^−10 to 10^−2 M. Measurements were performed in triplicate, and each experiment was repeated three times. The IC50 values were determined using Origin software (version 9.6, OriginLab, Washington, DC, USA).
In general terms: Tetrazolium assays rely on reduction of a dye to a coloured formazan, in cell work by metabolically active cells.

Data set [3] concerns MCF7 (breast adenocarcinoma). In words: Cell growth inhibition, MTT assay, MCF7. It is filed as cell-based. The conditions noted are these: Homo sapiens. Here is the method:
as §1, §2, §3

For data set [4], the system named is U87 MG (glioblastoma). In words: Cell growth inhibition, MTT assay, U87 MG. The format is cell-based. Conditions: Homo sapiens, U-87 MG. Here is the method: as §1, §2, §3
The test system of data set [5] is T98G (temozolomide resistant glioblastoma). In words: Cell growth inhibition, MTT assay, T98G. The format is cell-based. Conditions: Homo sapiens. Here is the method: as §1, §2, §3
In data set [6] the test system is HepG2 (hepatocellular carcinoma). In words: Cell growth inhibition, MTT assay, HepG2. The conditions noted are these: Homo sapiens. The format is cell-based. As for the experimental part:
as §1, §2, §3

The test system of data set [7] is HCT8 (colorectal carcinoma). In words: Cell growth inhibition, MTT assay, HCT8. The conditions noted are these: Homo sapiens. The format is cell-based. Here is the method:
as §1, §2, §3

Data set [8] relates to HT-29 (colon adenocarcinoma). In words: Cell growth inhibition, MTT assay, HT-29, without or with verapamil. It is filed as cell-based, human. As for the experimental part:
as §1
Multidrug resistance (MDR) proteins, especially P-glycoprotein (P-gp), are often involved in resistance mechanisms affecting tubulin-binding drugs that are frequently related to the failure of cancer therapies. […] These pumps are also part of the blood–brain barrier.
as §2, §3

In data set [9] the test system is HEK-293 (embryonic kidney). In words: Cell growth inhibition, MTT assay, non-tumor HEK-293. The format is cell-based. Conditions: Homo sapiens, HEK293, 72 h, non-tumorigenic cell line. Here is the method:
The ability of the synthesized compounds to inhibit the cell proliferation of human cancer cell lines was assayed by measuring cell viability through the use of the MTT method 72 h after treatment. For this purpose, representative cell lines of the most frequent kinds of cancer were selected, including the following: HeLa (cervix epithelioid carcinoma), MCF7 (breast adenocarcinoma), U87 MG (glioblastoma), T98G (temozolomide resistant glioblastoma), HepG2 (hepatocellular carcinoma), HCT8 (colorectal carcinoma), and HT-29 (colon adenocarcinoma). […] The compounds were also tested against the non-tumor HEK-293 cells to study their selectivity toward cancer cells. […] The cell lines were obtained from ATTC (Manassas, VA, USA). […] The cells were periodically tested for Mycoplasma infection by using a MycoAlert kit (Lonza, Norwest, Australia), and only Mycoplasma-free cells were used in the experiments. […] Louis, MO, USA), which was dissolved in PBS at 5 mg/mL in accordance with the manufacturer's instructions. […] Untreated cells were used as negative controls. The antiproliferative activity of compounds was measured 72 h after drug exposure through the MTT assay. […] For this purpose, compounds were used at different concentrations, ranging from 10^-10 to 10^-2 M. Measurements were performed in triplicate, and each experiment was repeated three times. The IC50 values were determined using Origin software (version 9.6, OriginLab, Washington, DC, USA).

In data set [10] the target is T1, microtubular protein isolated from calf brains (bovine brain tubulin) (Bos taurus, UniProt P81947+Q6B856).
T1 construct: from tissue; host or cells: calf (bovine) brain
In words: Tubulin polymerization inhibition (TPI). It is filed as biochemical. Conditions: in vitro tubulin polymerization, mean ± SD. As for the experimental part: We evaluated the capacity of the new synthesized compounds to inhibit the polymerization of microtubular protein isolated from calf brains. The assays were performed by taking absorbance measurements to quantify the amount of polymer mass formed in the presence (or absence; negative controls) of the compounds.
Bovine brain tubulin was isolated as previously described by following a modified version of the Shelanski method. The protein was stored at −80 °C, and its concentration was determined by employing the Bradford method before each use. […] Tubulin polymerization, caused when heating the samples, was accompanied by an increase in the absorbance (at 450 nm) of the sample that was monitored by using a Helios α spectrophotometer. […] Measurements were performed in triplicate in two independent experiments using microtubular proteins from different preparations.

Where [11] appears, read: HCT-8, 72 h after drug exposure.
[12] abbreviates: Homo sapiens, HT-29, 72 h after drug exposure.
[13] abbreviates: Homo sapiens, HT-29, mean ± SD, Table S1.
Where [14] appears, read: mean ± SD, Table S1, in the presence of verapamil (10 µM).

T1 sequence (Q6B856 whole entry): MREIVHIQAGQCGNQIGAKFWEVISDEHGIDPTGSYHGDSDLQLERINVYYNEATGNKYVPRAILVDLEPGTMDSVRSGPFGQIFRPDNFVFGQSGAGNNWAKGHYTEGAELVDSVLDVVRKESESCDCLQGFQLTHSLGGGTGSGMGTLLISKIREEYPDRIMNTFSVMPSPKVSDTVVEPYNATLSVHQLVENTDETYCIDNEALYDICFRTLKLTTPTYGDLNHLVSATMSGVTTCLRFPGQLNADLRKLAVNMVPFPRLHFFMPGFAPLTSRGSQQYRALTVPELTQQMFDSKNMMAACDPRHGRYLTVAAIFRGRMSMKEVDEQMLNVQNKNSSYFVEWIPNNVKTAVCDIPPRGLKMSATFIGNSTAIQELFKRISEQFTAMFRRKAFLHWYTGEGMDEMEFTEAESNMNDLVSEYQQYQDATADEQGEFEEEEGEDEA
T1 sequence (P81947 whole entry): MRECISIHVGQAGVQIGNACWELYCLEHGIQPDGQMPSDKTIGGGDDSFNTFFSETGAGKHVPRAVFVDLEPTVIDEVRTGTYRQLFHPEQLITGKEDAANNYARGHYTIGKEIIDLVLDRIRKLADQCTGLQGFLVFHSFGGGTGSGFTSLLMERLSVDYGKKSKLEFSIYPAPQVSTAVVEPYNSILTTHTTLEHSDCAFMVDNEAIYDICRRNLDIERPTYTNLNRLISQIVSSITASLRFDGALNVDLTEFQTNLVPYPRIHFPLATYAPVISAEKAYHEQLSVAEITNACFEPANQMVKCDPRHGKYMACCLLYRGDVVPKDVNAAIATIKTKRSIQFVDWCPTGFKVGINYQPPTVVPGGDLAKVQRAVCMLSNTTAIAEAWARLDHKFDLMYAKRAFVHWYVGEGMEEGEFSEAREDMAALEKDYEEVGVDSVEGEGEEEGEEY

`CSc1cc(-c2nnnn2-c2ccc3c(ccn3C)c2)cc(SC)n1` [Compound 11, 5-(5-(2,6-bis(methylsulfanyl)pyridin-4-yl)-1H-tetrazol-1-yl)-1-methyl-1H-indole]: the melting point was 160 to 161 °C. The compound further yielded a solubility at 72 h in [1] of 30.7 ± 0.3 µg/mL (≈ 83.3 µM). In addition, the IC50 in [2] (72 h after drug exposure) was determined as 233 nM. The compound further gave an IC50 in [2] (mean ± SD, Table S1) of 233.1 ± 1.4 nM. In addition, 240 nM corresponded to half-maximal inhibition in data set [3] (72 h after drug exposure) (IC50). In [3] (mean ± SD, Table S1), the IC50 is 240.2 ± 2 nM. In [4] (72 h after drug exposure), this compound had an IC50 of 209 nM. The IC50 in data set [4] (mean ± SD, Table S1) came out at 209.3 ± 1.9 nM. In data set [5] (72 h, 72 h after drug exposure), this compound yielded an IC50 of 219 nM. This compound also gave an IC50 in data set [5] (mean ± SD, Table S1) of 219 ± 2.2 nM. Also, in data set [6] (72 h after drug exposure), 227 nM corresponded to half-maximal inhibition (IC50). This compound had an IC50 in data set [6] (mean ± SD, Table S1) of 227 ± 2.5 nM. In addition, 236 nM corresponded to half-maximal inhibition in [7] (setting [11]) (IC50). Moreover, the IC50 in data set [8] (setting [12]) was found to be 255 nM. The compound further showed an IC50 in [8] (setting [13]) of 255 ± 2.6 nM. Further, the IC50 in [8] (setting [14]) stood at 257 ± 3 nM. Also, the IC50 in data set [9] was determined as 6820 nM. This compound also yielded an IC50 in data set [10] of 3800 ± 100 nM.

For the compound `COc1cc(-c2nnnn2-c2ccc3c(c2)c(C=O)cn3C)cc(Cl)n1` [Compound 13, 5-(5-(2-chloro-6-methoxypyridin-4-yl)-1H-tetrazol-1-yl)-1-methyl-1H-indole-3-carbaldehyde], the melting point was in the range of 214 to 215 °C. In addition, the solubility at 72 h in data set [1] was 45.3 ± 0.4 µg/mL (≈ 123 µM). Further, half-maximal inhibition in [2] (72 h after drug exposure) (IC50) required 57 nM. Further, it took 57.5 ± 0.3 nM to reach half-maximal inhibition in data set [2] (mean ± SD, Table S1) (IC50). In data set [3] (72 h after drug exposure), this compound showed an IC50 of 65 nM. The IC50 in data set [3] (mean ± SD, Table S1) turned out to be 65.4 ± 0.5 nM. Also, inhibition in data set [4] (72 h after drug exposure) was half-maximal at 55 nM (IC50). In [4] (mean ± SD, Table S1), this compound had an IC50 of 55.4 ± 0.4 nM. The compound further displayed an IC50 in [5] (72 h, 72 h after drug exposure) of 54 nM. In data set [5] (mean ± SD, Table S1), the midpoint of inhibition, the IC50, lay at 54.1 ± 0.3 nM. Also, in [6] (72 h after drug exposure), half-maximal inhibition (IC50) was put at 55 nM. The midpoint of inhibition in [6] (mean ± SD, Table S1), the IC50, lay at 55.3 ± 0.2 nM. 50 nM corresponded to half-maximal inhibition in data set [7] (setting [11]) (IC50). In data set [7] (HCT-8, mean ± SD, Table S1), half-maximal inhibition (IC50) required 50.1 ± 0.4 nM. Further, the IC50 in [8] (setting [12]) is 64 nM. In [8] (setting [13]), this compound returned an IC50 of 64.2 ± 0.4 nM. For the same compound, the IC50 in [8] (setting [14]) worked out at 67.3 ± 0.6 nM. The compound further returned an IC50 in data set [9] of 3720 nM. Besides, in data set [10], the IC50 came out at 2800 ± 200 nM.

The compound `CSc1cc(-c2nnnn2-c2ccc3c(c2)c(C=O)cn3C)cc(SC)n1` [Compound 15, 5-(5-(2,6-bis(methylsulfanyl)pyridin-4-yl)-1H-tetrazol-1-yl)-1-methyl-1H-indole-3-carbaldehyde] gave a melting point of 207 to 208 °C. The compound further came in with a solubility at 72 h in data set [1] of 41.2 ± 0.4 µg/mL (≈ 104 µM). Besides, in data set [2] (72 h after drug exposure), half-maximal inhibition (IC50) was put at 144 nM. This compound also displayed an IC50 in data set [2] (mean ± SD, Table S1) of 144 ± 1.7 nM. The compound further gave an IC50 in [3] (72 h after drug exposure) of 130 nM. Moreover, the midpoint of inhibition in [3] (mean ± SD, Table S1), the IC50, lay at 130.1 ± 1.1 nM. This compound also registered an IC50 in data set [4] (72 h after drug exposure) of 115 nM. Further, the midpoint of inhibition in data set [4] (mean ± SD, Table S1), the IC50, lay at 115 ± 1.4 nM. Further, the IC50 in data set [5] (72 h, 72 h after drug exposure) is 122 nM. The same compound had an IC50 in [5] (mean ± SD, Table S1) of 122.5 ± 1.2 nM. This compound registered an IC50 in [6] (72 h after drug exposure) of 137 nM. For the same compound, half-maximal inhibition in data set [6] (mean ± SD, Table S1) (IC50) was put at 137 ± 1.5 nM. Also, the midpoint of inhibition in data set [7] (setting [11]), the IC50, lay at 141 nM. Moreover, inhibition in data set [7] (HCT-8, mean ± SD, Table S1) was half-maximal at 141.3 ± 1 nM (IC50). The same compound displayed an IC50 in data set [8] (setting [12]) of 244 nM. This compound also returned an IC50 in data set [8] (setting [13]) of 244.1 ± 1.8 nM. For the same compound, the IC50 in [8] (setting [14]) was determined as 242 ± 2.5 nM. This compound returned an IC50 in [9] of 6480 nM. In data set [10], the IC50 was 3500 ± 200 nM.

The record behind these values is publication PMC10342533, “Novel Tetrazole Derivatives Targeting Tubulin Endowed with Antiproliferative Activity against Glioblastoma Cells” (International Journal of Molecular Sciences, 2023).
